From the supplement of paper PMC10307832

Experiments:
Assay in all cases: relative viability (nuclei count vs DMSO), 5 days (fraction); higher = more cells survive
[1] = compound: C1/C(=C\C2=CC=CS2)/C(=O)/C(=C/C3=CC=CS3)/C1 + Nc1nc2[nH]cc(CCc3ccc(C(=O)N[C@@H](CCC(=O)O)C(=O)O)cc3)c2c(=O)[nH]1 [Pemetrexed] (partner 0.2 µM)
Outline: (§1)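 After 5 days of treatment, lung cancer cells in 1536-well plates were fixed and stained in a single step (final 0.05% Triton X-100, 1% formaldehyde, 1 ug/ml Hoechst) and their nuclei counted on 4× images. Treatment had been applied by pin tool the day after seeding as one drug alone or as a fixed anchor-drug dose with five library-drug doses (not always all listed) in √10 steps. Relative viability is the nuclei count of treated wells divided by that of vehicle wells, and values are medians of duplicate plates.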

[2] = compound: C[C@]12O[C@H](C[C@]1(O)CO)n1c3ccccc3c3c4c(c5c6ccccc6n2c5c31)CNC4=O [Lestaurtinib] + CC(=O)Nc1cccc(-n2c(=O)n(C3CC3)c(=O)c3c(Nc4ccc(I)cc4F)n(C)c(=O)c(C)c32)c1 [Trametinib] (partner 0.02 µM)
Outline: as §1

[3] = compound: C1/C(=C\C2=CC=CS2)/C(=O)/C(=C/C3=CC=CS3)/C1 + Nc1ncn([C@H]2C[C@H](O)[C@@H](CO)O2)c(=O)n1 [Decitabine] (partner 2 µM)
Outline: as §1

[4] = compound: C1/C(=C\C2=CC=CS2)/C(=O)/C(=C/C3=CC=CS3)/C1 + NC(=O)Nc1cc(-c2cccc(F)c2)sc1C(=O)N[C@H]1CCCNC1 [AZD7762] (partner 0.2 µM)
Outline: as §1

Cell Line | relative viability ([1]; first compound 0.2 µM) | relative viability ([1]; first compound 0.6325 µM) | relative viability ([1]; first compound 2 µM) | relative viability ([1]; first compound 6.325 µM) | relative viability ([1]; first compound 20 µM) | relative viability ([2]; first compound 0.005 µM) | relative viability ([2]; first compound 0.01581 µM) | relative viability ([2]; first compound 0.05 µM) | relative viability ([2]; first compound 0.1581 µM) | relative viability ([2]; first compound 0.5 µM) | relative viability ([3]; first compound 0.2 µM) | relative viability ([3]; first compound 0.6325 µM) | relative viability ([3]; first compound 2 µM) | relative viability ([3]; first compound 6.325 µM) | relative viability ([3]; first compound 20 µM) | relative viability ([4]; first compound 0.2 µM) | relative viability ([4]; first compound 0.6325 µM) | relative viability ([4]; first compound 2 µM) | relative viability ([4]; first compound 6.325 µM) | relative viability ([4]; first compound 20 µM)
NCI-H1734 | 0.439 | 0.433 | 0.457 | 0.37 | 0.426 | 0.788 | 0.788 | 0.712 | 0.478 | 0.267 | 0.582 | 0.427 | 0.523 | 0.403 | 0.486 | 0.591 | 0.57 | 0.551 | 0.415 | 0.523
NCI-H1755 | 0.436 | 0.413 | 0.484 | 0.369 | 0.387 | 0.766 | 0.774 | 0.731 | 0.571 | 0.407 | 0.74 | 0.706 | 0.743 | 0.676 | 0.706 | 0.551 | 0.421 | 0.436 | 0.426 | 0.335
NCI-H1792 | 0.931 | 0.875 | 0.882 | 0.74 | 0.767 | 0.429 | 0.516 | 0.339 | 0.386 | 0.244 | 0.642 | 0.519 | 0.561 | 0.495 | 0.496 | 0.772 | 0.755 | 0.75 | 0.521 | 0.587
NCI-H1793 | 0.973 | 0.711 | 1.03 | 0.796 | 0.914 | 0.425 | 0.467 | 0.432 | 0.461 | 0.346 | 0.526 | 0.554 | 0.614 | 0.305 | 0.469 | 0.488 | 0.482 | 0.596 | 0.328 | 0.199
NCI-H1915 | 0.456 | 0.529 | 0.479 | 0.447 | 0.475 | 0.318 | 0.254 | 0.253 | 0.12 | 0.0799 | 0.261 | 0.279 | 0.246 | 0.232 | 0.268 | 0.73 | 0.67 | 0.689 | 0.642 | 0.677
NCI-H1944 | 0.619 | 0.591 | 0.603 | – | 0.572 | 0.408 | 0.464 | 0.386 | 0.345 | 0.292 | 0.423 | 0.427 | 0.439 | – | 0.392 | 0.502 | 0.461 | 0.526 | – | 0.442
NCI-H1975 | 0.321 | 0.298 | 0.32 | 0.269 | 0.301 | 0.344 | 0.33 | 0.348 | 0.262 | 0.209 | 0.404 | 0.356 | 0.324 | 0.365 | 0.385 | 0.826 | 0.801 | 0.656 | 0.618 | 0.763
NCI-H1993 | 0.669 | 0.593 | 0.539 | 0.551 | 0.472 | 0.553 | 0.505 | 0.483 | 0.498 | 0.418 | 0.557 | 0.558 | 0.675 | 0.499 | 0.432 | 0.783 | 0.747 | 0.958 | 0.62 | 0.499
NCI-H2085 | 0.963 | 0.909 | 0.96 | 0.857 | 0.939 | 0.476 | 0.514 | 0.558 | 0.652 | 0.46 | 0.56 | 0.544 | 0.597 | 0.498 | 0.508 | 1.03 | 1.05 | 0.926 | 0.932 | 0.932
NCI-H2087 | 0.635 | 0.7 | 0.621 | 0.529 | 0.639 | 0.201 | 0.264 | 0.203 | 0.23 | 0.187 | 0.251 | 0.286 | 0.36 | 0.305 | 0.224 | 1.46 | 1.29 | 1.18 | 1.17 | 1.25
NCI-H2126 | 0.677 | 0.681 | 0.789 | 0.58 | 0.714 | 0.625 | 0.6 | 0.624 | 0.52 | 0.578 | 0.564 | 0.624 | 0.547 | 0.582 | 0.587 | 1.04 | 0.933 | 1.08 | 0.862 | 1
NCI-H2170 | 0.283 | 0.246 | 0.259 | 0.245 | 0.256 | 0.896 | 0.864 | 0.609 | 0.764 | 0.31 | 0.439 | 0.436 | 0.466 | 0.466 | 0.479 | 0.921 | 0.923 | 0.866 | 0.714 | 0.764
NCI-H2342 | 0.781 | 0.764 | 0.838 | 0.718 | 0.747 | 0.836 | 0.817 | 0.841 | 0.849 | 0.971 | 0.819 | 0.73 | 0.713 | 0.752 | 0.653 | 0.484 | 0.537 | 0.718 | 0.483 | 0.363
NCI-H2347 | 0.44 | 0.429 | 0.478 | 0.448 | 0.426 | 0.288 | 0.305 | 0.299 | 0.278 | 0.301 | 0.689 | 0.581 | 0.628 | 0.57 | 0.633 | 0.788 | 0.696 | 0.866 | 0.65 | 0.792
NCI-H2405 | 1.08 | 0.96 | 1.2 | 1.01 | 1.04 | 0.701 | 0.656 | 0.572 | 0.54 | 0.274 | 0.798 | 0.722 | 0.822 | 0.719 | 0.704 | 0.958 | 0.757 | 0.867 | 0.716 | 0.715
NCI-H3122 | 0.195 | 0.213 | 0.206 | 0.191 | 0.206 | 0.298 | 0.228 | 0.228 | 0.223 | 0.335 | 0.509 | 0.375 | 0.472 | 0.381 | 0.463 | 0.983 | 0.919 | 0.968 | 0.956 | 0.967
